Here are results for 23 compounds from US3943256A (priority 1974, dated 1976).

SMILES strings stand for the structures. Entries after “also recorded” stand apart in the source; their conditions may differ. Read-outs that look alike come from different tables or passages of the source. Where only a bound is given, the exact number is not on record here.

Data set [1] deals with mouse. Also on record: species or system male CF-1 mice. As to conditions: in vivo.
Data set [2] has as its system mouse. Also on record: species or system male CF-1 mice; unit not given here. As to conditions: in vivo.
Data set [3] concerns mouse. The note with it: in vivo; cited from earlier work.
The subject of data set [4] is dogs. The note with it: dog, in vivo.
The test system of data set [5] is dogs. The note with it: dog, in vivo; cited from earlier work.
For data set [6], the system named is flurothyl induced convulsions. As to conditions: in vivo; cited from earlier work.
For data set [7] the following is noted: in vivo; cited from earlier work.
In data set [8] the test system is mouse. As to conditions: in vivo.

Take `FC(F)OC(F)(F)C(F)C(F)(F)F` (stereo not drawn) [III, Difluoromethyl 1,1,2,3,3,3-hexafluoropropyl ether]: the “MOUSE […]., VOL. %” value with mouse [1] is 2.0 VOL. %.
As to `FCOC(C(F)F)C(F)(F)F` (stereo not drawn) [XVI], the “MOUSE AC50” value in the data set on mouse [2] turned out to be 0.84.
Turning to `FC(F)(F)COCC(F)(F)F` [VII, flurothyl], in the data set on mouse [3], the “MOUSE […]., VOL. %” value is ≤ 0.25 VOL. %. For the same compound, in the data set on mouse [1], the “[…] (type of convulsions)” value was “CLONIC AND TONIC CONVULSIONS”; the “time to clonic and tonic convulsions” value was 30 s.
For `COCC(F)(F)C(F)F` [XX], in the data set with mouse [2], the “MOUSE AC50” value is listed as 2.5.
Take `FC(F)OC(C(F)(F)F)C(F)(F)F` [X]: in the data set with mouse [2], the “MOUSE AC50” value was 2.5. The “convulsant effect in dogs” value in the data set on dogs [4] is “NON[…] DOGS”.
Regarding `COC(C(F)F)C(F)(F)F` (stereo not drawn) [XXII], the “MOUSE AC50” value in the data set with mouse [2] was 1.5.
As for `FCOC(F)(C(F)F)C(F)(F)F` (stereo not drawn) [XIV], in the data set on mouse [2], the “MOUSE AC50” value stood at 2.5. Further, the “convulsant effect in dogs” value in the data set on dogs [4] was “NON[…] DOGS”.
As for `COCC(F)(F)C(F)(F)F` [XIX, methyl 2,2,3,3,3-pentafluoropropyl ether], the “MOUSE AC50” value with mouse [2] is 11. In the data set on dogs [5], the effect in dogs entry was “EXTENSOR RIGIDITY OF HIND LEGS; also recorded: TREMORS”.
As for `FC(F)OC(C(F)F)C(F)(F)F` (stereo not drawn) [XI], the “MOUSE AC50” value with mouse [2] is 0.84.
With `FC(F)OC(F)(C(F)F)C(F)F` [IV, Difluoromethyl 1,1,2,3,3-pentafluoro-2-propyl ether], the “convulsant effect in dogs” value with dogs [4] is given as “OPISTHOTONOID”. In the data set on mouse [1], the “MOUSE […]., VOL. %” value was 1.2 VOL. % and the “[…] (type of convulsions)” value was “C[…] SEDATION”.
`FCOC(C(F)(F)F)C(F)(F)F` [XV]: in the data set with mouse [2], the “MOUSE AC50” value was determined as 1.4. Also, the “convulsant effect in dogs” value with dogs [4] was “NON[…] DOGS”.
With `COC(C(F)(F)F)C(F)(F)F` [XXI], the “MOUSE AC50” value in the data set with mouse [2] is listed as 2.2. In addition, in data set [6], the “antagonism to flurothyl induced convulsions” value is “ANTAGONIST”. For the same compound, the “convulsant effect in dogs” value in the data set on dogs [4] is “NON[…] DOGS”.
Take `FC(F)OC(F)C(F)(F)C(F)(F)F` (stereo not drawn) [IX]: the “MOUSE AC50” value with mouse [2] was 4.3.
As for `FC(F)OCC(F)(F)C(F)F` [I, Difluoromethyl 2,2,3,3-tetrafluoropropyl ether], in the data set with mouse [1], the “MOUSE […]., VOL. %” value is reported as 1.0 VOL. % and the “[…] (type of convulsions)” value was “CLONIC CONVULSIONS”.
For the compound `FC(F)OC(F)C(F)(F)C(F)F` (stereo not drawn) [VIII], in the data set on mouse [2], the “MOUSE AC50” value came out at 0.61. Moreover, the “convulsant effect in dogs” value in the data set on dogs [4] is “NON[…] DOGS”.
Turning to `FC(F)OC(C(F)F)C(F)F` [XII], the “MOUSE AC50” value in the data set on mouse [2] is on record as 0.64.
Still for that read-out and setting: for `FCOC(F)(F)C(F)C(F)(F)F` (stereo not drawn) [XIII] the value was 2.1.
As for `COC(F)(F)C(F)C(F)(F)F` (stereo not drawn) [XVIII, methyl 1,1,2,3,3,3-hexafluoropropyl ether], the “MOUSE AC50” value with mouse [2] stood at 3.9.
With `FCOCC(F)(F)C(F)(F)F` [V, Fluoromehtyl 2,2,3,3,3-pentafluoropropyl ether], in the data set on mouse [1], the “MOUSE […]., VOL. %” value was 1.5 VOL. % and the “[…] (type of convulsions)” value is “METRAZOLE-LIKE CONVULSIONS”.
On to `FC(F)C(F)(F)COC(F)(F)F` [VI], for which, in data set [7], the convulsions and death result is “VIOLENT C[…] DEATH”; the “time to violent convulsions and death” value was 30 to 120 s. In addition, in the data set on mouse [1], the “MOUSE […]., VOL. %” value is reported as ≤ 0.5 VOL. %.
As to `COC(F)(F)C(F)(F)C(F)(F)F` [XVII], the cause of death result in the data set on mouse [8] is recorded as “DEATH DUE TO ANOXIA”.
With `FC(F)OCC(F)(F)C(F)(F)F` [II, Difluoromethyl 2,2,3,3,3-pentafluoropropyl ether], in the data set with mouse [1], the “MOUSE […]., VOL. %” value is reported as 1.4 VOL. % and the “[…] (type of convulsions)” value is given as “CLONIC AND TONIC CONVULSIONS, CATALEPSY”.
Take `COC(C(F)F)C(F)F` [XXIII]: the “MOUSE AC50” value in the data set with mouse [2] came out at 1.4.
